One molecule from paper PMC10924921, “Mi-2β promotes immune evasion in melanoma by activating EZH2 methylation” (Nature Communications, 2024) can be followed below.

The structures appear in SMILES notation.

Common to all, as to assay: biochemical
Common to all, as to parameters: KINOMEscan active-site competition binding panel (468 kinase assays), per cent of control at 1000 nM
What all share (settings): KINOMEscan per cent of control (binding competition); read-out: Percent Control

One assay addresses EGFR (Homo sapiens, UniProt P00533). An excerpt:
(§1) Figure S7 / Percent Control

The next assay deals with EGFR(L858R,T790M) (Homo sapiens, UniProt P00533, L858R/T790M).
Description: as §1

For another assay, the target named is T1, p38-delta (Homo sapiens, UniProt O15264).
T1 construct: gene MAPK13
Description: as §1

For the next assay, the target named is PRKG1 (Homo sapiens, UniProt Q13976).
Description: as §1

Another assay deals with RIPK4 (Homo sapiens, UniProt P57078).
RIPK4, sequence (P57078 whole entry): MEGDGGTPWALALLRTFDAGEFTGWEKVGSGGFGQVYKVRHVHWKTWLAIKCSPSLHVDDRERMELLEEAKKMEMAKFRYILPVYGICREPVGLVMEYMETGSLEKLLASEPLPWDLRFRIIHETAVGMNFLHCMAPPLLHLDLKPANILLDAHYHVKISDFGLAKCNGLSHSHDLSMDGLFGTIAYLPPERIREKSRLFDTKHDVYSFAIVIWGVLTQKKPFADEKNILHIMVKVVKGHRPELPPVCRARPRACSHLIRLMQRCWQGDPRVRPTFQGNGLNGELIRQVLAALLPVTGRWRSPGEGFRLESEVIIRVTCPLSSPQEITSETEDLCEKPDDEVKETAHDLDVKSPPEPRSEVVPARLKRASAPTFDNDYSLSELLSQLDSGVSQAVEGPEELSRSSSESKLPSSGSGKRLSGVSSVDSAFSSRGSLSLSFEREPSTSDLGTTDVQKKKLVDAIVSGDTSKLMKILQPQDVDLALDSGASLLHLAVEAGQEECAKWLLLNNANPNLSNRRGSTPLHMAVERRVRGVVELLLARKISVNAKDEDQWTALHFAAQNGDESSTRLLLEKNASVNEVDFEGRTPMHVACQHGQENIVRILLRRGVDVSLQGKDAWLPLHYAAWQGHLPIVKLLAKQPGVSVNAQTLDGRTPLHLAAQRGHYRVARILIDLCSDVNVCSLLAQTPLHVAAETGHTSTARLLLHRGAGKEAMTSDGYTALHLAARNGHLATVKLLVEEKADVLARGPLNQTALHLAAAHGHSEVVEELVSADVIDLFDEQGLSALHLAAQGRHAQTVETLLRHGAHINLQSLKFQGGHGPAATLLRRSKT
Description: as §1

The target in assay [1] is EGFR(L747-S752del, P753S) (Homo sapiens, UniProt P00533, DEL747-752/P753S).
EGFR(L747-S752del, P753S), sequence (P00533 with tags, fused parts or gaps DEL747-752/P753S): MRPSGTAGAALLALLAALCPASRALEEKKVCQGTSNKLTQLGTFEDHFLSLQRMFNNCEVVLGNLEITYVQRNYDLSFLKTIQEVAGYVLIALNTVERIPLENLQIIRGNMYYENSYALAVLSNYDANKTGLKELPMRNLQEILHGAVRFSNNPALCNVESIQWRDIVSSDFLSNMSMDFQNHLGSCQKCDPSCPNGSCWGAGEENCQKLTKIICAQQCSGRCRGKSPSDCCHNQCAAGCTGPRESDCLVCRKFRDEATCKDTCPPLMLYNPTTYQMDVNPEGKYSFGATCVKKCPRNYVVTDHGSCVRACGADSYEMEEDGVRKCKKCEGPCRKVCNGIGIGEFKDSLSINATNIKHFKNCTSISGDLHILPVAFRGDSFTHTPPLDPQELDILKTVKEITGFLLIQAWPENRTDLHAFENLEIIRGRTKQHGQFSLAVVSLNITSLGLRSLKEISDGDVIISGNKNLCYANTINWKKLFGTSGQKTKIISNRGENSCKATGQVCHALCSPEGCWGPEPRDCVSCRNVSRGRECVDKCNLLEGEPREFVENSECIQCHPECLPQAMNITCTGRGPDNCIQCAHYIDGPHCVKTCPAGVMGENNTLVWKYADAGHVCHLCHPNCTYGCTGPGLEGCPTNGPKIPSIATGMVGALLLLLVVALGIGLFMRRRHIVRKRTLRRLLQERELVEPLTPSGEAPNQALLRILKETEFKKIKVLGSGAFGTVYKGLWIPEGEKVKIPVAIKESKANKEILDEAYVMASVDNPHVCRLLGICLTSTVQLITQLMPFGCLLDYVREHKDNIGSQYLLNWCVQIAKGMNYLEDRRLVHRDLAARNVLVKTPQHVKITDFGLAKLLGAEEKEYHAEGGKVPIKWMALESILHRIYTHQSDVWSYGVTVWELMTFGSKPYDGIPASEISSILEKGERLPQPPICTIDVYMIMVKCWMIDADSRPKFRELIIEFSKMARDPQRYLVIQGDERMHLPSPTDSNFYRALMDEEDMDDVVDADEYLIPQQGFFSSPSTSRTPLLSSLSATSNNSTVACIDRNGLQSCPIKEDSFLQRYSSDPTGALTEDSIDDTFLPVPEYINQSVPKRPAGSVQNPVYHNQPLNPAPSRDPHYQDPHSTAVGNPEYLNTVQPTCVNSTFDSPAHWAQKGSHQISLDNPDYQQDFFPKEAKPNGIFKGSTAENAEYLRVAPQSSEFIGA
Description: as §1

Another assay concerns the target GSK3A (Homo sapiens, UniProt P49840).
Description: as §1

For the next assay, the target named is KIT(V559D,T670I) (Homo sapiens, UniProt P10721, T670I/V559D).
Description: as §1

Another assay deals with PIK3CG (Homo sapiens, UniProt P48736).
Description: as §1

The next assay concerns the target T2, MLK3 (Homo sapiens, UniProt Q16584).
T2 construct: gene MAP3K11
Description: as §1

Another assay concerns the target EPHA8 (Homo sapiens, UniProt P29322).
Description: as §1

The target in another assay is T3, OSR1 (Homo sapiens, UniProt O95747).
T3 construct: gene OXSR1
Description: as §1

The next assay addresses T4, ERK5 (Homo sapiens, UniProt Q13164).
T4 construct: gene MAPK7
Description: as §1

Assay [2] addresses T5, RSK4(Kin.Dom.1-N-terminal) (Homo sapiens, UniProt Q9UK32).
T5 construct: gene RPS6KA6; Kin.Dom.1-N-terminal
Description: as §1

The next assay addresses FYN (Homo sapiens, UniProt P06241).
Description: as §1

The target in another assay is EGFR(G719C) (Homo sapiens, UniProt P00533, G719C).
Description: as §1

For assay [3], the target named is T6, ABL1(Y253F)-phosphorylated (Homo sapiens, UniProt P00519, Y253F).
T6 construct: phosphorylated
Description: as §1

A further assay concerns the target TLK1 (Homo sapiens, UniProt Q9UKI8).
Description: as §1

The target in the next assay is EPHA5 (Homo sapiens, UniProt P54756).
Description: as §1

The target in a further assay is IRAK3 (Homo sapiens, UniProt Q9Y616).
IRAK3, sequence (Q9Y616 whole entry): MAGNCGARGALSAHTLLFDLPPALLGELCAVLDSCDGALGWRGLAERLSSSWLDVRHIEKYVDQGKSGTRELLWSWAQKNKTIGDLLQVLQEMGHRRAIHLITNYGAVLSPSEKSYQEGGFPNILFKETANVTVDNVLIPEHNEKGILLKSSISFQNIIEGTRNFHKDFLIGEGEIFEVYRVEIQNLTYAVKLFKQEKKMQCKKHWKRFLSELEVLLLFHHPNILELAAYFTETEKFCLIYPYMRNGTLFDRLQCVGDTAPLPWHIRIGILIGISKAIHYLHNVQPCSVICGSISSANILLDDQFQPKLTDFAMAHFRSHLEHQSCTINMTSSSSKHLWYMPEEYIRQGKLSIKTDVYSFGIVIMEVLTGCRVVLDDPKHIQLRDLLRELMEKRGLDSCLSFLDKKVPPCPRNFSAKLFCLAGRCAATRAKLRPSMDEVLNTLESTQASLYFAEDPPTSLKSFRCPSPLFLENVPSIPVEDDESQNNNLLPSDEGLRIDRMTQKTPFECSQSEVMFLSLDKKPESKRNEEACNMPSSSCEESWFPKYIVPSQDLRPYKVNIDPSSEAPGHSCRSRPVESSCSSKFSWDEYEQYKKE
Description: as §1

In another assay the target is EPHB2 (Homo sapiens, UniProt P29323).
Description: as §1

The target in another assay is DDR2 (Homo sapiens, UniProt Q16832).
DDR2, sequence (Q16832 whole entry): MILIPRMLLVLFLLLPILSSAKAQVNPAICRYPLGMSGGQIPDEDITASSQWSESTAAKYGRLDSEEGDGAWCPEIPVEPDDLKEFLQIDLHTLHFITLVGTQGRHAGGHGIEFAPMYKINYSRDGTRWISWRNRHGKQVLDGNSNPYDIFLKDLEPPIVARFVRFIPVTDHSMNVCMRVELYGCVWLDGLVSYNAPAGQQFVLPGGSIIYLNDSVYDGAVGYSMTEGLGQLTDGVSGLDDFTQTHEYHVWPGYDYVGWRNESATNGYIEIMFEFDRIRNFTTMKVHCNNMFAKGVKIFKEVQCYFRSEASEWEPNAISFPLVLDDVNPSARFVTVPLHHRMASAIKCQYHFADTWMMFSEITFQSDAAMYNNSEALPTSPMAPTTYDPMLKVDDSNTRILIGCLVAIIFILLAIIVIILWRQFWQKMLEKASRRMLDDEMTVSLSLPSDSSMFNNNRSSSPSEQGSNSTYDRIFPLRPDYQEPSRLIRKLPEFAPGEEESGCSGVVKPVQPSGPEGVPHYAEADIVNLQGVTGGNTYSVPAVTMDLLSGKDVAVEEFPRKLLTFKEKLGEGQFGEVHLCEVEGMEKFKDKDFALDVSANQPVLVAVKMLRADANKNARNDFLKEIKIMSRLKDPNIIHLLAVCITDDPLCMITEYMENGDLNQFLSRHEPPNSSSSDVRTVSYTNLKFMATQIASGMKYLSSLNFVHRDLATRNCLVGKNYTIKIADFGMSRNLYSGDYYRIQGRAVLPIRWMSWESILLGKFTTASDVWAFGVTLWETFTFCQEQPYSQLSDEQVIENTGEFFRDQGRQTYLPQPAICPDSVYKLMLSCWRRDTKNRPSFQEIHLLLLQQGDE
Description: as §1

Assay [4] addresses T7, ABL1(F317L)-phosphorylated (Homo sapiens, UniProt P00519, F317L).
T7 construct: phosphorylated
Description: as §1

The target in another assay is FES (Homo sapiens, UniProt P07332).
Description: as §1

GSK3A, sequence (P49840 whole entry): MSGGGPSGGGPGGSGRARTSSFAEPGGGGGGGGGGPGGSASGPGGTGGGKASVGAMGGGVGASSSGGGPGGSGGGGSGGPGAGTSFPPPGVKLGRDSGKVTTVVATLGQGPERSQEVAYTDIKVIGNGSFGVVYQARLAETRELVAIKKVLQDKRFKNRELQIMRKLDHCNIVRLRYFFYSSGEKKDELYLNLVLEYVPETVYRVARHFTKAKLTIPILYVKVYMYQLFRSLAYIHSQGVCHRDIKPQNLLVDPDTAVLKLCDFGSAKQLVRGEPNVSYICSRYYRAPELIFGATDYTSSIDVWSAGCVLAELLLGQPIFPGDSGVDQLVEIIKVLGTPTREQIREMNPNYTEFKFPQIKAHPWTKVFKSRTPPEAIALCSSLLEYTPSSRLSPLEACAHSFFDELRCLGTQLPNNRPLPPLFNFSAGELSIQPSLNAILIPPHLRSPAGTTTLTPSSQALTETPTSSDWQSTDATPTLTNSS
EPHA8, sequence (P29322 whole entry): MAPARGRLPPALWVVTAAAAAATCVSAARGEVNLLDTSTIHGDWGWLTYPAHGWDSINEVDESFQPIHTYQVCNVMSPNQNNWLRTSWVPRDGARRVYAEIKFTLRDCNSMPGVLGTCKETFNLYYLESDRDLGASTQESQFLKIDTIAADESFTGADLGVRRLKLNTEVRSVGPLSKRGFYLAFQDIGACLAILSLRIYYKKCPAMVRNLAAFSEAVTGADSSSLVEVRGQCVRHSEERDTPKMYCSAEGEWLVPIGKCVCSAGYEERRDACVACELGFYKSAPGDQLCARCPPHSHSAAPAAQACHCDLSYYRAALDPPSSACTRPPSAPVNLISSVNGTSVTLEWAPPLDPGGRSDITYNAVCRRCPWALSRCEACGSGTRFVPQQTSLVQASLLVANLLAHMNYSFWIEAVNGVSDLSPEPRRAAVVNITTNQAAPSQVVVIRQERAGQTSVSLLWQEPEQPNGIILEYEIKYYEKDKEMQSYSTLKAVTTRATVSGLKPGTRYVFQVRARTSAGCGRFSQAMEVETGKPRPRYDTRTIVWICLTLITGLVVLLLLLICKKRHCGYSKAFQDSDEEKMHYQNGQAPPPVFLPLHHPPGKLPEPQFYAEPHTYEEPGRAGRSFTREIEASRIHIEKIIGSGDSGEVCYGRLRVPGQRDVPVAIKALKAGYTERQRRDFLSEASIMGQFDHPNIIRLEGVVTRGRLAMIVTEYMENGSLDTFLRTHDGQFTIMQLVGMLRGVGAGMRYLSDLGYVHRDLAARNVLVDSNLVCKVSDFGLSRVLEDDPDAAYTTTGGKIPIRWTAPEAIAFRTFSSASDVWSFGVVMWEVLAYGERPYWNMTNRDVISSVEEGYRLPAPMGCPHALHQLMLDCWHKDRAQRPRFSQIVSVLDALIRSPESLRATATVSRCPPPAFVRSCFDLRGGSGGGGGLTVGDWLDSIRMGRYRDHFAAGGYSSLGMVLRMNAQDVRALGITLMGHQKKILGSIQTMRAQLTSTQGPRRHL

As for `Cn1c(=O)[nH]c2ccc(-c3cccc(C(=O)NC4CCn5ccnc5C4)c3)cc21` (stereo not drawn) [Z36-MP5], the remaining binding at 1 µM at EGFR was 97%; at EGFR(L858R,T790M) it was 39%; at p38-delta, 98%; on PRKG1, 64%; at RIPK4, 99%; in [1], 51%. Moreover, the remaining binding at 1 µM at GSK3A came out at 95%; at KIT(V559D,T670I), 86%; on PIK3CG, 83%; on MLK3 it was 93%; at EPHA8 it was 75%; at OSR1, 73%. The remaining binding at 1 µM was found to be 86% at ERK5; 36% in assay [2]; 100% at FYN; 79% at EGFR(G719C); 72% in assay [3]; 90% at TLK1. Also, the remaining binding at 1 µM at EPHA5 stood at 86%; at IRAK3, 99%; on EPHB2 it was 70%; on DDR2, 66%; in assay [4], 83%; at FES, 73%.
